Series [1] concerns ES2/Fluc tumors. In words: Sindbis+CPT-11 ES2/Fluc tumor survival experiment. The series is classed as in vivo, Es1^c/SCID mice. The conditions noted are these: untreated mice survived about 4 weeks; i.p. treatment 4 times a week for 5 weeks from day 5. How it is done: FIGS. 1A and 1B: Survival of tumor-bearing mice treated with Sindbis+CPT-11. (A) Mice were injected with 1.5×10^6 ES2/Fluc cells on day 0. Mice were then divided into 4 groups of 10. Treatment started on day 5, and lasted for 5 weeks, in which mice were treated 4 times a week. Mice treated with Sindbis/LacZ received I.P. injection of ˜10^7 plaque-forming units of the vector in 0.5 mL OptiMEM; mice treated with CPT-11 received I.P. injections of 15 mg/kg body weight of the recipient of CPT-11 in […]. Mice treated with the combined treatments were treated with Sindbis/LacZ and CPT-11 on the same day (Sindbis/LacZ in the morning, and CPT-11 in the evening). […] The experiment was repeated twice (for a total of 20 mice per group), and the results were combined into one graph. (B) Tumor load in mice treated with Sindbis/LacZ+CPT-11. On day 4 after injecting the mice with 10 million ES2/Fluc cells, tumors developed in various IP locations (top). […]
C.B-17 SCID mice (Taconic, Germantown, N.Y.) were bred with a plasma esterase deficient mouse model—Es1^c Foxn1^nu/J (Jackson laboratory, Bar Harbor, Me.). […] Briefly, blood was collected from F2 mice, and was tested by FACS analysis to determine T and B cell levels, and the plasma esterase activity was measured using a nitrophenyl acetate assay (Spectrum, Gardena, Calif.). […]

For series [2], the system named is luciferase-expressing Mia Paca cells. In words: Mia Paca pancreatic cancer model, Sindbis vectors with and without CPT-11. It is filed as in vivo, Es1/SCID mice. The conditions noted are these: treated 4 times a week for 2 weeks; images since day 18. How it is done: FIG. 3 is a graph showing the effect of Sindbis virus vectors with and without CPT-11 treatment on pancreatic cancer in Mia Paca mice, a model for pancreatic cancer.
Female Es1/SCID mice were inoculated intraperitoneally with 5 million luciferase-expressing Mia Paca cells (a model for pancreatic cancer) on day 0. Mice were then divided into 4 groups: Mock (untreated), Sindbis/LacZ treated, CPT-11 treated, and Sindbis/LacZ+CPT-11 treated. The mice were treated 4 times a week, for 2 weeks, and then the treatment was stopped.

The subject of a further series is s.c. N2a tumors. In words: s.c. N2a neuroblastoma model: vascular leakiness, vector transduction, tumor growth. It is filed as in vivo, SCID mice. The following applies: for tumor vascular permeability / leakiness (AngioSense signals): metronomic i.p. Paclitaxel 16 mg/Kg or Cisplatin 4 mg/Kg. The source says:
FIG. 7A-7D. […] We used 1:1 RD-Sindbis/LacZ:RC-Sindbis/Fluc mixture as a control. AngioSense® 750 (0.66 nmol) was i.v. injected on day 1. […] B, quantitative presentation of luciferase signals in tumors. C and D, quantitative presentation of AngioSense® signals of tumors receiving indicated treatments.
A, relative growth curves of s.c. N2a tumors treated with Paclitaxel alone (Taxol®) or untreated (Ctrl). B, relative tumor growth curves of different treatment groups as in FIG. 5.
FIG. 9A-9C. […] Starting on day 0, daily treatments of Cisplatin (4 mg/Kg or 12 mg/m^2 compared with maximum tolerated dose of 100 mg/m^2 in humans) were i.p. injected into SCID mice bearing s.c. N2a tumors. One last Cisplatin treatment was administrated on day 4. A, to visualize vascular leakiness, AngioSense® 750 (0.66 nmol) was i.v. injected on day 1 and imaged on day 2. B, RC-Sindbis/Fluc was i.v. injected on day 0 and day 2. Luciferase activities in tumors that indicated active vector propagation were monitored on day 3. C, relative tumor growth curves of different treatment groups.
All animal experiments were performed in accordance with NIH and institutional guidelines. BHK cells (1.5×10^6/mouse) were s.c. inoculated into SCID mice (female, 6-8 week old, Taconic, Germantown, N.Y.). The mouse neuroblastoma tumors were induced by s.c. injection of 1.5×10^6 N2a cells into SCID mice 13 days prior to treatments. For better visualization, we remove excessive fur on the skin over the tumor and its surrounding region. The setting for dual mPlum/AngioSense imaging is as following: ex605/em660, 680 and 700 nm, followed by ex745/em800, 820 and 840 nm. Bioluminescent imaging of luciferase activities was performed as described before (7). Tumor sizes were measured using the formula: π/6×length (mm)×width (mm)^2.
In order to test whether chemotherapeutic agents synergize with Sindbis vector in tumor eradication by modulating vascular leakiness, we used a s.c. mouse N2a neuroblastoma model.
We used a replication-competent (RC) Sindbis/Fluc vector (21) instead of an RD one to further enhance the tumor transduction signal output (FIG. 7B) in N2a tumors. RC vector carries a full set of viral structural genes to support its replication. Specific tumor infection of RC vector could result in oncolytic effects by intratumoral vector replication and amplification. […] To ensure temporary expression of VEGF, we used replication defective RD-Sindbis/VEGF mixed with RC-Sindbis/Fluc (1:1).

For series [3] the following is noted: in human; cited from earlier work.
Series [4] concerns ES2/Fluc tumors. In words: Sindbis+Taxol ES2/Fluc tumor growth and survival experiment. The series is classed as in vivo, SCID mice. How it is done: FIG. 2A-2D: Survival and tumor load in tumor-bearing mice treated with Sindbis+Taxol®. Mice were injected with 4×10^6 ES2/Fluc cells on day 0. Mice were then divided into 4 groups of 9. Mice were treated with Sindbis/LacZ (I.P.) daily from day 1 to day 11, and with Taxol® (0.4 mg/mouse) on day 3, 6 and 10. (B) Quantitative analysis of tumor growth, day 1 tumor load signal was set at 100% for each individual mouse for comparison with later images (day 3, 6, and 10). (C) Mouse survival was monitored. (D) The surviving mice were imaged on day 46 to determine if they have any tumors.
Sindbis+Taxol® ES2/Fluc tumor growth and survival experiment: Female SCID mice (8-12 weeks old) received intraperitoneal injections of 4×10^6 ES2/Fluc cells on day 0, and tumor growth was validated by imaging the mice on day 1. For quantitative analysis of tumor growth, day 1 tumor load signal was set as 100% for each individual mouse for comparison with subsequent images. Mice (nine per group) were treated with Sindbis/LacZ (I.P.) daily from day 1 to day 11, and with Taxol® (0.4 mg/mouse) on day 3, 6 and 10. Mice were imaged on days 1, 3, 6, 10, and 46. A tumor free mouse was used as a negative control.

The subject of the next series is cancer cells. The series can be described thus: Pretreatment of cancer cells with drug, susceptibility to Sindbis vector. It is filed as cell-based. The conditions noted are these: data not shown.
The next series has as its system endothelium cells. The following applies: cited from earlier work.

The values below come from patent publication US20160008431A1, “Tumor Therapy With Antitumor Agents In Combination With Sindbis Virus-Based Vectors” (priority 2008, published 2016).

“Also recorded” adds a separate entry of the source.

With `CCc1c2c(nc3ccc(OC(=O)N4CCC(N5CCCCC5)CC4)cc13)-c1cc3c(c(=O)n1C2)COC(=O)[C@]3(O)CC` [CPT-11, irinotecan], the “additional survival compared with untreated mice” value with ES2/Fluc tumors [1] was determined as 15 days. The “tumor status on images” value in series [2] is “have tumors that appear to be growing”.

In the case of `N.N.[Cl][Pt][Cl]` [Cisplatin], the “Sindbis vector delivery and transduction (luciferase signals in tumors)” value with s.c. N2a tumors (RC-Sindbis/Fluc vector) was “enhanced”. Further, the “tumor vascular permeability / leakiness (AngioSense signals)” value with s.c. N2a tumors was “significantly increased; also recorded: enhancement in tumor vascular leakiness”. Moreover, the “therapeutic efficacy in combination with Sindbis vectors” value in the series on s.c. N2a tumors (relative tumor growth curves, FIG. 8B, 9C) is “better therapeutic efficacy”. For the same molecule, the maximum tolerated dose in series [3] is recorded as 100 mg/m^2.

Take `CC(=O)O[C@H]1C(=O)[C@@]2(C)[C@H]([C@H](OC(=O)c3ccccc3)[C@]3(O)C[C@H](OC(=O)[C@H](O)[C@@H](NC(=O)c4ccccc4)c4ccccc4)C(C)=C1C3(C)C)[C@]1(OC(C)=O)CO[C@@H]1C[C@@H]2O` [Paclitaxel]: the “tumor level of survivors on day 46” value in the series on ES2/Fluc tumors [4] (IVIS imaging, compared with tumor-free mouse) is reported as “much higher tumor levels”. In the series on ES2/Fluc tumors [4] (days 3, 6 and 10, day 1 signal set at 100%), the “tumor load / tumor growth by imaging” value was “still show tumor growth”. The “mice surviving on day 46” value with ES2/Fluc tumors [4] (nine mice per group, treatment stopped for 35 days) was “one”. The “susceptibility of pretreated cancer cells to Sindbis vector” value in the series with cancer cells was “does not enhance”. The “tumor vascular permeability / leakiness (AngioSense signals)” value with s.c. N2a tumors is on record as “significantly increased; also recorded: enhance tumor vascular leakiness”. Besides, in the series on s.c. N2a tumors (relative growth curves, FIG. 8A), the “tumor growth, drug alone” value was “suppresses tumor growth”. Further, in series [3], the maximum tolerated dose is 175 mg/m^2. Also, the “sensitivity of endothelium cells relative to tumor cells, times more sensitive” value with endothelium cells is 10-100.
